These results are taken from publication PMC9034499, “RORγt agonist enhances anti-PD-1 therapy by promoting monocyte-derived dendritic cells through CXCL10 in cancers” (Journal of Experimental & Clinical Cancer Research : CR, 2022).

One experiment concerns the target T1, RORγt LBD protein (Homo sapiens, UniProt P51449).
T1 construct: RORγt (residues 263–509)-GGG-SRC1; GGG linker + SRC1 peptide (C); His-tag (inferred from pET28a and nickel purification); made in house; host or cells: E. coli strain DE3, pET28a
T1 sequence (P51449 263-509): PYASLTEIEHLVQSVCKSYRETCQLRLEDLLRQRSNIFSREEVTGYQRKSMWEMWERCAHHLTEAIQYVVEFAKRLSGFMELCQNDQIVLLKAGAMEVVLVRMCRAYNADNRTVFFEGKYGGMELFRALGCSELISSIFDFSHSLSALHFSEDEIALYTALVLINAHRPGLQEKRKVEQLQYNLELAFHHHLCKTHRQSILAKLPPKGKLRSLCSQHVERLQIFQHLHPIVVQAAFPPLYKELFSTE
Nature of the experiment: Biacore binding to RORγt LBD protein. Conditions: RORγt protein immobilized on CM5 chip. An excerpt: Human nuclear receptor RORγt (residues 263–509)-GGG-SRC1 (SRC1 sequence: EKHKILHRLLQDS, Sangon Biotech, Shanghai). RORγt LBD was cloned in pET28a. Key residue mutations of RORγt LBD (such as PHE388, LEU391, CYS393, LEU396, ILE397, ILE400, CYS320, ALA321, LEU324, MET358, and PHE388) with LYC-55716 were cloned in pET28a. Key residue mutations of RORγt LBD (MET365, ALA368, PHE401, ILE400, ILE397, LEU396, TRP317, CYS320, LEU324, ALA327, TYR330, VAL331, MET358, and VAL361) with 8-074 were cloned in pET28a. The proteins were expressed in E. coli strain DE3. Then, the transformed E. coli culture was grown at 37 °C with 30 μg/mL Kanamycin LB (Luria–Bertani). When the OD600 of LB medium reached 0.6, the temperature was changed to 16 °C, and isopropyl-β-D-thiogalactopyranoside (IPTG, Beyotime, Shanghai, China) was added at a final concentration of 0.4 mM to induce protein expression for 16 h. After 16 h, the pellet was collected after centrifugation at 4,000 rpm for 15 min at 4 °C. […]
The RORγt protein was immobilized on a CM5 chip (GE Health, Chicago, USA) using Biaocre 8 K. A sensogram was obtained using different serial concentrations of 8-074 (5000 nM, 2500 nM, 1250 nM, 625 nM, 312.5 nM, 156.25 nM, 78.125 nM, and 39.0625 nM). […] Data were analyzed using Biacore Evaluation Software.

In experiment [1] the test system is Tc17 cells (CD8+ T cells). The experiment is described as follows: Murine Tc17 differentiation, flow cytometry. The format is cell-based, mouse. To be noted: Tc17, intracellular staining, same concentration. As to the method: CD4^+ CD25^−CD62L^high cells were purified from C57BL/6 splenocytes using an EasySep Mouse Naïve CD4^+ T cell isolation kit from STEMCELL Technologies (Vancouver, Canada), and they were differentiated into Th17 cells (TGF-β, 2 ng/ml; IL-6, 20 ng/ml; Anti-IFN-γ, 10 μg/ml; Anti-IL-4, 10 μg/ml, BioLegend, San Diego, CA) in the presence of plate-bound anti-CD3 (5 μg/ml, BioLegend, San Diego, CA) and anti-CD28 (2 μg/ml, BioLegend, San Diego, CA). The cells were harvested and processed for cytokine analysis at the RNA or protein level using real-time qPCR, flow cytometry, and ELISA on day five. Alternatively, splenocytes from OT-I mice were activated using OVA-derived peptides SIINFEKL (50 ng/ml, Sangon Biotech, Shanghai, China) and polarized to Tc17 cells using cytokine TGF-β (2 ng/ml, BioLegend, San Diego, CA) and IL-6 (20 ng/ml, BioLegend, San Diego, CA) for four or five days.
Cells were stained with fluorochrome-labeled anti-mouse Ab such as CD45, CD3, CD4, CD8, Foxp3, IFN-γ, IL-17A, CD11b, CD11c, pAKT, pSTAT3, CCR6, or MHCII. […] Cells were acquired using the FACS Aria II machine and analyzed using FlowJo software.

Another experiment has as its target T2, hRORγt LBD (Homo sapiens, UniProt P51449).
T2 construct: expressed in transfected cells; host or cells: HEK293T
T2 sequence (P51449 269-508 limits assumed): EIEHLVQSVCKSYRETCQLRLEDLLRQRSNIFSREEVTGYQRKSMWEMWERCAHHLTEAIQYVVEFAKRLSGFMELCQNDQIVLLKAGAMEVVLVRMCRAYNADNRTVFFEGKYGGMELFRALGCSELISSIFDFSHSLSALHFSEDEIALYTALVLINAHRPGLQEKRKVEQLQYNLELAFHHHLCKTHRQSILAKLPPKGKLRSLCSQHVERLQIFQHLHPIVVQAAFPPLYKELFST
The experiment is described as follows: RORγt GAL4 cell-based reporter gene assay. To be noted: HEK293T host cells; read-out: EC50, RORγt agonist activity in Gal4 reporter gene assay. As to the method: The hRORγt LBD coding sequence was inserted into a pBIND expression vector (Promega, E1581) to express the ROR-GAL4 binding domain chimeric receptors. This expression vector and a reporter vector (pGL4.35, which carries a stably integrated GAL4 promoter-driven luciferase reporter gene [luc2P/9XGAL4 UAS/Hygro]) were co-transfected into the HEK293T host cells. The assay was performed according to a previous study. EC50 of the sigmoidal fits were analyzed using Prism 5 and a four-parameter logistic fit equation, Y = bottom + (top–bottom) / (1 + 10(logEC50 − X) × hill slope). "X" is the log of compound concentration, and "Y" is the response, which increases as X increases. Y starts at "bottom" and goes to "top" with a sigmoid shape.

Consider `CCS(=O)(=O)c1ccc(CC(=O)Nc2ccc(-c3ccc(CC(C)C)c(C#N)c3)c(C(F)(F)F)c2)cc1` [8-074], for which, at RORγt LBD protein, the equilibrium dissociation constant (Kd) came out at 497 nM. Besides, the “percentage of CD8+ T cells that express IL-17A” value in experiment [1] was found to be 50.4%. Also, the EC50 at hRORγt LBD is 119 nM.
